The source of these data is patent US9221809B2 (MERCK SHARP & DOHME CORP., priority 2011, dated 2015).

Counter-ions that a name gives are not always drawn.

The target in this test is IRAK4 (Homo sapiens (Human), UniProt Q9NWZ3). Nature of the test: IRAK4 kinase activity, IMAP fluorescence polarization assay. Format: biochemical. The conditions noted are these: 100 μM ATP, 0.5 nM GST tagged IRAK4; read-out: IRAK4 IC50. As to the method:
The kinase activity of IRAK4 is determined by its ability to catalyze the phosphorylation of a fluorescent polypeptide substrate. The extent of phosphorylation is measured using IMAP technology (Molecular Devices) where the phosphorylated fluorescent substrate binds to the large M(III)-based nanoparticles which reduces the rotational speed of the substrate and thus increases its fluorescent polarization (FP).
Assay Procedure: A 20 μl reaction mixture contains 10 mM TriHCl, pH 7.2, 0.5 nM GST tagged IRAK4 (SignalChem), 100 nM fluorescent peptide substrate (RP7030, Molecular Devices), 100 μM ATP, 1 mM DTT, 1 mM MgCl2, and 0.01% Tween 20. The reaction is initiated by the addition of ATP. After incubation for 30 minutes at 25° C., 60 μl of Progressive IMAP Reagent (Molecular Devices) is added to stop the reaction. Change in RP7030's FP is determined by a FP reader (Analyst HT, LJL BioSystems)

Sequence of IRAK4 (Q9NWZ3 whole entry): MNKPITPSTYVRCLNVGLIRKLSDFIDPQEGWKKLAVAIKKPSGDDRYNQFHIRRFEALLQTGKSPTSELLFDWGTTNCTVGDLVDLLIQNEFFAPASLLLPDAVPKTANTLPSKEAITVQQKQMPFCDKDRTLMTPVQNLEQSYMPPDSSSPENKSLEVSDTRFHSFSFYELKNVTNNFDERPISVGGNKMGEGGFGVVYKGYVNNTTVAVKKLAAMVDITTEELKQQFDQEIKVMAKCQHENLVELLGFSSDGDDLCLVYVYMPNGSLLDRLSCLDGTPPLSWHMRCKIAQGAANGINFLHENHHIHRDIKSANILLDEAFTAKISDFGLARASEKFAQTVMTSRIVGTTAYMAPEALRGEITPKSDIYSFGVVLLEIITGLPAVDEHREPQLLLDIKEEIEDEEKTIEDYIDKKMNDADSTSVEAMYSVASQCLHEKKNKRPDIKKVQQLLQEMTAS

Regarding `O=c1[nH]c(NC2CCC2)nc(N[C@@H]2C[C@H](CO)[C@@H](O)[C@H]2O)c1-c1cscn1` [Example 23, 2-(Cyclobutylamino)-6-((1R,2S,3R,4R)-2,3-dihydroxy-4-(hydroxymethyl)cyclopentylamino)-5-(thiazol-4-yl)pyrimidin-4(3H)-one.HCl], the IC50 was 1.79 µM. Next, `O=c1[nH]c(N2CCCC2)nc(N[C@@H]2C[C@H](CO)[C@@H](O)[C@H]2O)c1-c1nc2ccccc2s1` [Example 25, 5-(Benzo[d]thiazol-2-yl)-6-(((1R,2S,3R,4R)-2,3-dihydroxy-4-(hydroxymethyl)cyclopentyl)amino)-2-(pyrrolidin-1-yl)pyrimidin-4(3H)-one.HCl]: 0.018 µM; `O=c1[nH]c(N2CCC(F)(F)CC2)nc(N[C@@H]2C[C@H](CO)[C@@H](O)[C@H]2O)c1-c1nc2ccccc2s1` [Example 27, 5-(Benzo[d]thiazol-2-yl)-2-(4,4-difluoropiperidin-1-yl)-6-(((1R,2S,3R,4R)-2,3-dihydroxy-4-(hydroxymethyl)cyclopentyl)amino)pyrimidin-4(3H)-one.HCl]: 0.135 µM. As to `CN(C)c1nc(N[C@@H]2C[C@H](CO)[C@@H](O)[C@H]2O)c(-c2nc3ccccc3s2)c(=O)[nH]1` [Example 30, 5-(Benzo[d]thiazol-2-yl)-6-(((1R,2S,3R,4R)-2,3-dihydroxy-4-(hydroxymethyl)cyclopentyl)amino)-2-(dimethylamino)pyrimidin-4(3H)-one.HCl], the IC50 came to 0.542 µM.

As for `O=c1[nH]c(N2CCC2)nc(N[C@@H]2C[C@H](CO)[C@@H](O)[C@H]2O)c1-c1nc2ccccc2s1` [Example 31, 2-(Azetidin-1-yl)-5-(benzo[d]thiazol-2-yl)-6-(((1R,2S,3R,4R)-2,3-dihydroxy-4-(hydroxymethyl)cyclopentyl)amino)pyrimidin-4(3H)-one.HCl], the IC50 came out at 0.067 µM. In the case of `Cc1csc(-c2c(N[C@@H]3C[C@H](CO)[C@@H](O)[C@H]3O)nc(N3CCOCC3)[nH]c2=O)n1` [Example 32, 6-(((1R,2S,3R,4R)-2,3-Dihydroxy-4-(hydroxymethyl)cyclopentyl)amino)-5-(4-methylthiazol-2-yl)-2-morpholinopyrimidin-4(3H)-one.HCl] it was 0.0266 µM; in that of `Cc1csc(-c2c(N[C@@H]3C[C@H](CO)[C@@H](O)[C@H]3O)nc(N3CCC(C(F)(F)F)CC3)[nH]c2=O)n1` [Example 33, 6-(((1R,2S,3R,4R)-2,3-Dihydroxy-4-(hydroxymethyl)cyclopentyl)amino)-5-(4-methylthiazol-2-yl)-2-(4-(trifluoromethyl)piperidin-1-yl)pyrimidin-4(3H)-one.HCl], 0.0936 µM; in that of `Cc1cccc(-c2c(N[C@@H]3C[C@H](CO)[C@@H](O)[C@H]3O)nc(N3CCCCC3)[nH]c2=O)n1` [Example 35, 6-(((1R,2S,3R,4R)-2,3-Dihydroxy-4-(hydroxymethyl)cyclopentyl)amino)-5-(6-methylpyridin-2-yl)-2-(piperidin-1-yl)pyrimidin-4(3H)-one.HCl], 0.296 µM.

For `O=c1[nH]c(NC2CNC2)nc(N[C@@H]2C[C@H](CO)[C@@H](O)[C@H]2O)c1-c1nc2ccccc2s1` [Example 36, 2-(Azetidin-3-ylamino)-5-(benzo[d]thiazol-2-yl)-6-(((1R,2S,3R,4R)-2,3-dihydroxy-4-(hydroxymethyl)cyclopentyl)amino)pyrimidin-4(3H)-one.HCl], the IC50 came out at 0.656 µM. In the case of `O=c1[nH]c(NC2CCNC2)nc(N[C@@H]2C[C@H](CO)[C@@H](O)[C@H]2O)c1-c1nc2ccccc2s1` (stereo partly drawn) [Example 37, 5-(Benzo[d]thiazol-2-yl)-6-(((1R,2S,3R,4R)-2,3-dihydroxy-4-(hydroxymethyl)cyclopentyl)amino)-2-(pyrrolidin-3-ylamino)pyrimidin-4(3H)-one.HCl] it was 2 µM; in that of `O=c1[nH]c(N[C@@H]2CCCNC2)nc(N[C@@H]2C[C@H](CO)[C@@H](O)[C@H]2O)c1-c1nc2ccccc2s1` [Example 38, 5-(Benzo[d]thiazol-2-yl)-6-(((1R,2S,3R,4R)-2,3-dihydroxy-4-(hydroxymethyl)cyclopentyl)amino)-2-((R)-piperidin-3-ylamino)pyrimidin-4(3H)-one.HCl], 5.12 µM; in that of `O=c1[nH]c(N[C@H]2CCCNC2)nc(N[C@@H]2C[C@H](CO)[C@@H](O)[C@H]2O)c1-c1nc2ccccc2s1` [Example 39, 5-(Benzo[d]thiazol-2-yl)-6-(((1R,2S,3R,4R)-2,3-dihydroxy-4-(hydroxymethyl)cyclopentyl)amino)-2-((S)-piperidin-3-ylamino)pyrimidin-4(3H)-one.HCl], 4.26 µM.

On to `COCCCNc1nc(N[C@@H]2C[C@H](CO)[C@@H](O)[C@H]2O)c(-c2nc3ccccc3s2)c(=O)[nH]1` [Example 40, 5-(Benzo[d]thiazol-2-yl)-6-(((1R,2S,3R,4R)-2,3-dihydroxy-4-(hydroxymethyl)cyclopentyl)amino)-2-((3-methoxypropyl)amino)pyrimidin-4(3H)-one HCl], for which the IC50 amounted to 0.06 µM. Next, `C[C@@]1(O)[C@H](O)[C@@H](CO)C[C@H]1Nc1nc(NC2CCC2)[nH]c(=O)c1-c1nc2ccccc2s1` [Example 41, 5-(Benzo[d]thiazol-2-yl)-2-(cyclobutylamino)-6-((1R,2S,3R,4R)-2,3-dihydroxy-4-(hydroxymethyl)-2-methylcyclopentylamino)pyrimidin-4(3H)-one.HCl]: 0.459 µM; `CC(C)[C@H]1C[C@@H](Nc2nc(N3CCOCC3)[nH]c(=O)c2-c2nc3ccccc3s2)[C@H](O)[C@@H]1O` [Example 42, 5-(Benzo[d]thiazol-2-yl)-6-((1R,2S,3R,4R)-2,3-dihydroxy-4-isopropylcyclopentylamino)-2-morpholinopyrimidin-4(3H)-one.HCl]: 0.072 µM. `CC(C)[C@H]1C[C@@H](Nc2nc[nH]c(=O)c2-c2nc3ccccc3s2)[C@H](O)[C@@H]1O` [Example 43, 5-(Benzo[d]thiazol-2-yl)-6-((1R,2S,3R,4R)-2,3-dihydroxy-4-isopropylcyclopentylamino)pyrimidin-4(3H)-one.HCl]: the IC50 was 0.85 µM. Next, `CC(C)[C@H]1C[C@@H](Nc2nc(N3CCC(c4cncnc4)CC3)[nH]c(=O)c2-c2nc3ccccc3s2)[C@H](O)[C@@H]1O` [Example 44, 5-(Benzo[d]thiazol-2-yl)-6-((1R,2S,3R,4R)-2,3-dihydroxy-4-isopropylcyclopentylamino)-2-(4-(pyrimidin-5-yl)piperidin-1-yl)pyrimidin-4(3H)-one.HCl]: 0.023 µM; `CC(C)(O)[C@H]1C[C@@H](Nc2nc(NC3CCC3)[nH]c(=O)c2-c2nc3ccccc3s2)[C@H](O)[C@@H]1O` [Example 45, 5-(Benzo[d]thiazol-2-yl)-2-(cyclobutylamino)-6-((1R,2S,3R,4S)-2,3-dihydroxy-4-(2-hydroxypropan-2-yl)cyclopentylamino)pyrimidin-4(3H)-one.HCl]: 0.065 µM; `C[C@H]1C[C@@H](Nc2nc(N3CCOCC3)[nH]c(=O)c2-c2ccc3ccccc3n2)[C@H](O)[C@@H]1O` [Example 46, 6-((1R,2S,3R,4S)-2,3-Dihydroxy-4-methylcyclopentylamino)-2-morpholino-5-(quinolin-2-yl)pyrimidin-4(3H)-one.HCl]: 0.005 µM. In the case of `C[C@H]1C[C@@H](Nc2nc(N3CCOCC3)[nH]c(=O)c2-c2nc3ccccc3s2)[C@H](O)[C@@H]1O` [Example 47, 5-(Benzo[d]thiazol-2-yl)-6-((1R,2S,3R,4S)-2,3-dihydroxy-4-methylcyclopentylamino)-2-morpholinopyrimidin-4(3H)-one.HCl] it was 0.023 µM; in that of `O=c1[nH]c(NC2CCC2)nc(N[C@@H]2CC[C@@H](O)[C@H]2O)c1-c1nc2ccccc2s1` [Example 48, 5-(Benzo[d]thiazol-2-yl)-2-(cyclobutylamino)-6-((1R,2S,3R)-2,3-dihydroxycyclopentylamino)pyrimidin-4(3H)-one.HCl], 2.26 µM; in that of `O=c1[nH]c(NC2CCC2)nc(NC[C@H](O)CO)c1-c1nc2ccccc2s1` [Example 49, (S)-5-(Benzo[d]thiazol-2-yl)-2-(cyclobutylamino)-6-(2,3-dihydroxypropylamino)pyrimidin-4(3H)-one.HCl], 5.33 µM. Next, `O=c1[nH]c(Nc2cncnc2)nc(N[C@@H]2C[C@H](CO)[C@@H](O)[C@H]2O)c1-c1nc2ccccc2s1` [Example 51, 5-(Benzo[d]thiazol-2-yl)-6-(((1R,2S,3R,4R)-2,3-dihydroxy-4-(hydroxymethyl)cyclopentyl)amino)-2-(pyrimidin-5-ylamino)pyrimidin-4(3H)-one.HCl]: 0.345 µM; `O=c1[nH]c(Nc2ccc(F)cc2)nc(N[C@@H]2C[C@H](CO)[C@@H](O)[C@H]2O)c1-c1nc2ccccc2s1` [Example 52, 5-(Benzo[d]thiazol-2-yl)-6-((1R,2S,3R,4R)-2,3-dihydroxy-4-(hydroxymethyl)cyclopentylamino)-2-(4-fluorophenylamino)pyrimidin-4(3H)-one.HCl]: 0.284 µM. Take `O=c1[nH]c(Nc2ccccc2)nc(N[C@@H]2C[C@H](CO)[C@@H](O)[C@H]2O)c1-c1nc2ccccc2s1` [Example 53, 5-(Benzo[d]thiazol-2-yl)-6-((1R,2S,3R,4R)-2,3-dihydroxy-4-(hydroxymethyl)cyclopentylamino)-2-(phenylamino)pyrimidin-4(3H)-one.HCl]: the IC50 was found to be 0.327 µM.

Consider `O=c1[nH]c(Nc2ccncc2)nc(N[C@@H]2C[C@H](CO)[C@@H](O)[C@H]2O)c1-c1nc2ccccc2s1` [Example 54, 5-(Benzo[d]thiazol-2-yl)-6-((1R,2S,3R,4R)-2,3-dihydroxy-4-(hydroxymethyl)cyclopentylamino)-2-(pyridin-4-ylamino)pyrimidin-4(3H)-one.HCl], for which the IC50 was determined as 0.654 µM.

What is called IC50 is the concentration needed to halve the response being measured.
